Reference: US20100203033A1, “Kits, formulations and solutions having enzymatically- permissive amounts of visualization agents and uses thereof” (priority 2007, published 2010)

Experiments:
thrombin [1] = target: T1, thrombin (Homo sapiens, UniProt P00734); assay: Thrombin clotting activity of dyed thrombin with or without exposure to day light; assay type: biochemical; design: measuring thrombin clotting activity in the different formulations; details: 0.02% dye in thrombin solution, uncovered, 6 hours day light
Experimental: (§1) Briefly, standard solution of thrombin (4, 6, 8 and 10 IU/ml) or the test sample were incubated for 2 minutes at 30° C. Then 40 μl thrombin solution of each solution were mixed with 160 μl fibrinogen solution (0.1%; Enzyme research; cat No FIB1 2800L) and clotting time was measured. A calibration curve of log clotting times vs. log thrombin concentration was plotted using the standards. Thrombin activity in the different formulations was determined by the clotting time obtained (calculated automatically by a clotting machine, interpolated from the calibration curve and multiplied by the dilution factor).
In the adhesion prevention indications the dye may be added to the thrombin component prior to mixing it with BAC. The present experiment was carried out to assess the effect of visualization agent addition to thrombin solution on thrombin clotting activity. Two dyes were evaluated: Indigo Carmine (IC) and Methylene Blue (MB). […] The effect of the dyes on thrombin activity with or without exposure to day light was assessed. The thrombin clotting activity was measured as indicated above in Example 1. […] The samples were mixed with the same fibrinogen solution and the thrombin activity was calculated from the calibration curve. […]
Thrombin activity and the color intensity (OD of IC at 610 nm and of MB at 663 nm) were measured at TO and after exposure to day light for 6 hours. […]

thrombin [2] = target: T1, thrombin; assay: Drop test model: migration length of fibrin sealant on a slanted surface (clotting kinetics); assay type: biochemical; design: 5 ml of a thrombin solution 5 folds diluted (final: 200 IU/ml)
Experimental: (§2) Human thrombin was mixed with different dyes to final dye concentrations of 0.005-0.2%. The influence of dyes on clotting kinetics was tested using the drop test model. Briefly, measurements of fibrin clotting kinetics were performed on an inclined plane in a device powered by a Nitrogen pressure of 7×10^5 Pa. In each experiment 5 ml of Biological Active Component (BAC) and 5 ml of a thrombin solution 5 folds diluted (final: 200 IU/ml) (in 40 mM CaCl2) were pumped into a separate syringe. […] These two solutions were released (about ⅛ of each) simultaneously, and a mixed drop falls onto a slanted surface. The drop leaks down the slope until a clot is formed. The distance traveled by the drops was recorded on a millimetric paper sheet placed on the slanted surface. […] The migration lengths of the fibrin sealant with the different formulations are listed below in Table 2.

thrombin [3] = target: T1, thrombin; assay: Thrombin clotting activity of dyed thrombin formulations (modified European Pharmacopeia Assay 0903/1997); assay type: biochemical; design: measuring thrombin clotting activity in the different formulations
Experimental: The present study was aimed to determine the effect of dye addition to the fibrin glue formulation on thrombin activity. […] The compatibility of the dyes with thrombin was tested by measuring thrombin clotting activity in the different formulations according to the following modified, European Pharmacopeia Assay (0903/1997), procedure.
as §1

thrombin [4] = target: T1, thrombin; assay: Drop test model after freeze and thaw (F&T) of dyed thrombin; assay type: biochemical; design: 5 ml of a thrombin solution 5 folds diluted (final: 200 IU/ml)
Experimental: as §2
Human thrombin was formulated with methylene blue, crystal violet, bromothymol blue or riboflavin at final concentrations of 0.005-0.1%. The different formulations were fast frozen to −35° C. and then thawed. The effect of the freeze and thaw procedure on thrombin clotting activity was evaluated using the drop test model (migration time assay as in Example 2).

[5] = Solubility of indigo carmine in thrombin solution by visual inspection; assay type: physicochemical
Experimental: The present example was aimed to determine the maximal solubility of indigo carmine in the thrombin component of the fibrin sealant. Thrombin final container (Omrix, 1,000 IU/ml, 5 ml) was mixed with 1% indigo carmine (dissolved in purified water) to a final concentration of 0.2, 0.21, 0.22, 0.25 or 0.3 mg/ml. The prepared solutions were mixed on a roller for 30 min at room temperature and the solubility limit of the dye was determined by visual inspection.

[6] = dye concentration within the thrombin component 0.1%
[7] = dye concentration within the thrombin component 0.2%
[8] = dye concentration within the thrombin component 0.01%
[9] = dye concentration within the thrombin component 0.05%
[10] = dye concentration within the thrombin component 0.005%
[11] = dye 0.005% in thrombin component
[12] = dye concentration within the thrombin component 0.02%

CN(C)c1ccc2nc3ccc(=[N+](C)C)cc-3sc2c1 [Methylene Blue]
reduction in thrombin activity (thrombin [1]): about 50% | Migration length (thrombin [2]; [6]): 10.7 cm | Migration length (thrombin [2]; [7]): 14.3 cm | Recovered activity (thrombin [3]; [8]): 92% | Thrombin Activity (thrombin [3]; [8]): 1018 IU/ml | Recovered activity (thrombin [3]; [9]): 97% | Thrombin Activity (thrombin [3]; [9]): 1070 IU/ml | Recovered activity (thrombin [3]; [6]): 90% | Thrombin Activity (thrombin [3]; [6]): 991 IU/ml | Recovered activity (thrombin [3]; [7]): 89% | Thrombin Activity (thrombin [3]; [7]): 978 IU/ml | Migration length (thrombin [4]; dye 0.1% in thrombin component): 8.4 cm

CN(C)c1ccc(C(=C2C=CC(=[N+](C)C)C=C2)c2ccc(N(C)C)cc2)cc1 [Crystal Violet]
Migration length (thrombin [2]; [10]): 12.1 cm | Migration length (thrombin [2]; [8]): 23.9 cm | Migration length (thrombin [2]; [9]): >25 cm | Recovered activity (thrombin [3]; [8]): 106% | Thrombin Activity (thrombin [3]; [8]): 1125 IU/ml | Recovered activity (thrombin [3]; [9]): 94% | Thrombin Activity (thrombin [3]; [9]): 995 IU/ml | Recovered activity (thrombin [3]; [6]): 49% | Thrombin Activity (thrombin [3]; [6]): 516 IU/ml | Recovered activity (thrombin [3]; [7]): 22% | Thrombin Activity (thrombin [3]; [7]): 234 IU/ml | Migration length (thrombin [4]; [11]): 16.3 cm

Cc1c(C2(c3cc(C(C)C)c(O)c(Br)c3C)OS(=O)(=O)c3ccccc32)cc(C(C)C)c(O)c1Br [Bromothymol Blue]
Migration length (thrombin [2]; [8]): 9.7 cm | Migration length (thrombin [2]; [12]): 11.9 cm | Migration length (thrombin [4]; dye 0.02% in thrombin component): >25 cm

CN(C)c1ccc(N=Nc2ccc(S(=O)(=O)[O-])cc2)cc1.[Na+] [Methyl Orange, Methyl Orange Sodium Salt]
Migration length (thrombin [2]; [10]): 8.26 cm | Migration length (thrombin [2]; [8]): 7.6 cm

CN(C)c1ccc(/N=N/c2ccccc2C(=O)O)cc1 [Methyl Red, Methyl red]
Migration length (thrombin [2]; dye dilution 01:26): 12.4 cm | Migration length (thrombin [2]; dye dilution 01:51): 10.2 cm

Cc1cc2nc3c(=O)[nH]c(=O)nc-3n(C[C@H](O)[C@H](O)[C@H](O)CO)c2cc1C [Riboflavin]
Migration length (thrombin [2]; [10]): 11.5 cm | Migration length (thrombin [2]; [8]): 13.3 cm | Migration length (thrombin [2]; [12]): 22.9 cm | Migration length (thrombin [4]; [11]): 19.8 cm

O=C1/C(=C2\Nc3ccc(S(=O)(=O)O)cc3C2=O)Nc2ccc(S(=O)(=O)O)cc21 [indigo carmine, Indigotindisulfonate sodium]
effect of storage at 2-8 °C ([5]; 0.02% indigo carmine dyed thrombin solution, about 30 min at 2-8 °C): sedimentation | effect of incubation at room temperature after refrigeration ([5]; 0.02% indigo carmine dyed thrombin solution, after over night incubation at 2-8 °C): re-dissolution of the particulate sample | result of visual inspection above the solubility limit ([5]; 0.21, 0.22, 0.25 and 0.3 mg/ml in thrombin solution): aggregate formation | concentration at which complete dissolution of the sample was obtained ([5]; thrombin final container 1,000 IU/ml, 30 min on roller at room temperature): 200 µg/mL
